Data from publication PMC10641236, “Influenza A virus replication has a stronger dependency on Raf/MEK/ERK signaling pathway activity than SARS-CoV-2” (Frontiers in Cellular and Infection Microbiology, 2023).
pEC50, pIC50: −log10 of the molar value. Like-named read-outs stand apart in the source and are kept apart here.

Assays:
IBV Lee = system: IBV Lee; design: method as in Laure et al., 2020; conditions: medium containing 0.2% BSA, ref Laure et al., 2020; cited from earlier work
SARS-CoV-2 = test: Virus yield reduction assay, SARS-CoV-2 (virus titer by RT-qPCR); type: cell-based; conditions: for reduction of virus titer compared to solvent control: 5% FBS; for reduction of virus titer compared to solvent control / reduction of the virus titer: 24 h; for reduction of the virus titer: Calu-3 and Caco-2 cells
Protocol: Calu-3 and Caco-2 cells were seeded in 24-well plates (Greiner Bio-One GmbH, Frickenhausen, Germany) and grown to 90% confluence. The cells were washed once with infection medium [IMDM supplemented with 0.2% bovine serum albumin (BSA) (Carl Roth GmbH + Co. KG, Karlsruhe, Germany) and 1% penicillin–streptomycin] prior to infection with a multiplicity of infection (MOI) of 0.01 of IAV PR8 or SARS-CoV-2 for 1 h in 200 µL of infection medium per well. Afterwards, the virus inoculum was removed completely, and the cells were washed once with infection medium and then treated with 1 mL per well of different concentrations of zapnometinib in infection medium with 1% dimethyl sulfoxide (DMSO) (Merck Millipore, Burlington, MA, USA) for 24 h at 37°C, 5% CO2. Supernatants were harvested and stored at −80°C for subsequent determination of virus titer and EC50 value. Cell lysates were prepared as described in the “Preparation of cell lysates and WES™ analysis” section for WES™ analysis.
The viral titers of IAV and SARS-CoV-2 viruses were determined using a real-time one-step multiplex RT-qPCR method. Briefly, viral nucleic acid extraction was performed using a QIAamp Viral RNA Mini Kit (Qiagen, Venlo, Netherlands) according to the manufacturer’s instructions. A TaqMan-based RT-qPCR assay was carried out using a QuantiNova Pathogen kit (Qiagen, Venlo, Netherlands) with specific primers targeting the SARS-CoV-2 N gene (2019-CoV2-N1F: […], 2019-CoV2-N1R: […], 2019-CoV2-N1P [6FAM]: […] [BHQ1]) and M gene for IAV according to the WHO guidelines. The viral genome copies per mL (gc/mL) were determined based on a standard curve prepared with 10-fold serial dilutions of the target gene. For quality control, nuclease-free water was included in each set of extractions as a negative control to monitor any possible cross-contamination. Moreover, an artificial exogenous QuantiNova RNA internal control (Qiagen, Venlo, Netherlands) was included during the nucleic acid purification to monitor the RNA purification efficiency and the RT-PCR amplification. A Rotor-Gene Q™ Real-Time PCR detection system (Qiagen, Venlo, Netherlands) was used for amplification, and the data were analyzed using Q-Rex software (Qiagen, Venlo, Netherlands).
For EC50 determination, a virus yield reduction assay was performed. The virus titer in the cell culture supernatant was determined and normalized to the solvent control. The EC50 value was determined using the “log(inhibitor) vs. normalized response - Variable slope” equation in GraphPad Prism version 9.4.0.

[1] = system: MEK1/2 (ERK1/2 phosphorylation); test: IC50 determination in the absence of viral infection, TNF-α-stimulated cells, pERK/ERK ratio by WES; type: cell-based; conditions: Homo sapiens, TNF-α 30 min then 1 h treatment, no virus
Protocol: Cells were lysed using cold modified RIPA buffer [0.24% (w/v) tris base (Sigma-Aldrich, St. Louis, Missouri, USA), 0.88% (w/v) NaCl (Carl Roth, Karlsruhe, Germany), 0.2% (v/v) 500 mM ethylenediaminetetraacetic acid (EDTA) (Sigma-Aldrich, St. Louis, Missouri, USA), 1% (v/v) Triton X-100 (Sigma-Aldrich, St. Louis, Missouri, USA), 0.5% (w/v) sodium deoxycholate (Sigma-Aldrich, St. Louis, Missouri, USA), 0.1% (w/v) sodium dodecyl sulfate (SDS) (Carl Roth, Karlsruhe, Germany), 10% (v/v) glycerol (Carl Roth, Karlsruhe, Germany), 0.05% phenylmethylsulfonyl fluoride (PMSF) (Carl Roth, Karlsruhe, Germany), 0.01% Benzonase® Nuclease (Sigma-Aldrich, St. Louis, Missouri, USA), protease inhibitor cocktail (Roche, Basel, Switzerland), and phosphatase inhibitor cocktail (Roche, Basel, Switzerland) in water]. Determination of the protein concentration was performed using the Pierce™ BCA Protein Assay Kit (Thermo Fisher Scientific Inc., Waltham, MA, USA) according to the manufacturer’s instructions. The samples were analyzed by Wes™ using a total protein concentration of 0.25–0.5 µg/µL for each sample, the Jess/Wes Separation kit (12–230 kDa), primary antibodies against ERK1/2, p44/42 MAPK (137F5) Rabbit mAb (Cell Signaling Technology, Danvers, MA, USA, Cat. No. 4695S) and phospho-ERK1/2 (pERK1/2), Phospho-p44/42 MAPK (Erk1/2) (Thr202/Tyr204) (D13.14.4E), XP® Rabbit mAb (Cell Signaling Technology, Danvers, MA, USA, Cat. no. 4370S) in a 1:50 dilution, anti-Influenza A virus Nucleoprotein (NP) antibody (rabbit MAb) (Sino Biological, Beijing, China Cat.no 40208-R010) in a 1:150 dilution, SARS-CoV-2 nucleocapsid protein antibody (ProSci Inc., Poway, CA, USA, Cat. no. 35-580) in a 1:100 dilution, the anti-goat, anti-rabbit, and anti-mouse detection modules, and the EZ Standard Pack 1 (12–230 kDa), according to the manufacturer’s instructions. Analysis of the obtained data was performed using the Compass for SW 4.1.0 software, Microsoft Excel, and the GraphPad Prism 9.2.0 software. Ratios were calculated from the area under the curve of the respective detected signals.
Twenty-four hours before the experiment, the growth medium was exchanged to medium with respective FBS or BSA concentration. Then, cells were stimulated by the addition of tumor necrosis factor alpha (TNF-α) (Sigma-Aldrich, St. Louis, Missouri, USA) for 30 min at 37°C, 5% CO2, followed by treatment with different zapnometinib concentrations and a DMSO (solvent) control for 1 h. For determination of the IC50 value in cells infected with IAV PR8 or SARS-CoV-2, cells were infected with the respective virus and treated with zapnometinib for 24 h as described in the “Virus yield reduction assay” section. After incubation, cell lysates were prepared, and the samples were analyzed by WES™ as described in the “Preparation of cell lysates and WES™ analysis” section. The pERK/ERK ratio was calculated and normalized to the solvent control. IC50 values were determined using the “log(inhibitor) vs. response -Variable slope (four parameters)” equation in GraphPad Prism version 9.4.0.

O=C(O)c1ccc(F)c(F)c1Nc1ccc(I)cc1Cl [zapnometinib, 2-(2-chloro-4-iodophenylamino)-N-3,4-difluoro benzoic acid]
pEC50 (IBV Lee): 5.38
reduction of virus titer compared to solvent control (SARS-CoV-2; 6.25 µM, Caco-2 cells): No significant reduction
reduction of virus titer compared to solvent control (SARS-CoV-2; 12.5 µM, Caco-2 cells): No significant reduction
reduction of virus titer compared to solvent control (SARS-CoV-2; 25 µM, Caco-2 cells): > 39%
reduction of the virus titer (SARS-CoV-2; 25 µM, 0.2% BSA): ≥ 50%
reduction of virus titer compared to solvent control (SARS-CoV-2; 50 µM, Caco-2 cells): > 60%
reduction of the virus titer (SARS-CoV-2; 50 µM, 0.2% BSA): ≥ 50%
reduction of virus titer compared to solvent control (SARS-CoV-2; 75 µM, Caco-2 cells): > 94%
reduction of the virus titer (SARS-CoV-2; 75 µM, 0.2% BSA): > 90%
reduction of virus titer compared to solvent control (SARS-CoV-2; 100 µM, Caco-2 cells): > 99%
reduction of the virus titer (SARS-CoV-2; 100 µM, 0.2% BSA): > 90%
pEC50 (SARS-CoV-2; Caco-2 cells, 0.2% BSA, MOI 0.01, 24 h, read-out: EC50 value against SARS-CoV-2 (FI)): 4.64
pEC50 (SARS-CoV-2; Severe acute respiratory syndrome coronavirus 2, Caco-2, 24 h, Caco-2 cells, 0.2% BSA, MOI 0.01, 24 h, read-out: EC50 value against SARS-CoV-2 (FI)): 4.64
pEC50 (SARS-CoV-2; Severe acute respiratory syndrome coronavirus 2, Caco-2, Caco-2 cells, medium containing 5% FBS, MOI 0.01, treatment 1 h post-infection, titer after 24 h, read-out: EC50 value against SARS-CoV-2): 4.47
pEC50 (SARS-CoV-2; Severe acute respiratory syndrome coronavirus 2, Calu-3, 24 h, Calu-3 cells, 0.2% BSA, MOI 0.01, 24 h, read-out: EC50 value against SARS-CoV-2 (FI)): 4.71
pEC50 (SARS-CoV-2; Severe acute respiratory syndrome coronavirus 2, summary for Calu-3 and Caco-2 cells, 0.2% BSA, read-out: EC50 values for SARS-CoV-2 in both cell lines): ~4.70
pIC50 ([1]; Caco-2, Caco-2 cells, 0% FBS): 7.40
pIC50 ([1]; Caco-2, Caco-2 cells, 0.2% BSA): 5.36
pIC50 ([1]; Caco-2, Caco-2 cells, 5% FBS): 5.35
pIC50 ([1]; Caco-2, Caco-2 cells, 10% FBS): 5.04
pIC50 ([1]; Calu-3, Calu-3 cells, 0% FBS): 7.22
pIC50 ([1]; Calu-3, Calu-3 cells, 0.2% BSA): 5.27
pIC50 ([1]; Calu-3, Calu-3 cells, 5% FBS): 5.18
pIC50 ([1]; Calu-3, Calu-3 cells, 10% FBS): 5.08
